Patent publication US7994204B2, “Binding inhibitor of sphingosine-1-phosphate” (Taisho Pharmaceutical Co., Ltd, priority 2006, dated 2011)

Biological target: T1, human Edg-1 (S1P1) (Homo sapiens, UniProt P21453)
T1 construct: expressed in transfected cells; host or cells: HEK-293
Assay: S1P1 binding inhibition test (membrane, [33P]-S1P)
Conditions: for inhibition at 10 µM: compound 10 μM, [33P]-S1P 0.1 nM, human Edg-1 (S1P1) HEK-293 membrane fraction, read-out: Binding test (membrane) % inhibition (10 μM)
Procedure: The membrane fraction was obtained by treating the cells with a solubilizing buffer (1 mM Tris/HCl, pH 7.2) for 10 minutes on ice, centrifuging at 1000×g for 5 minutes to remove insoluble fractions, and then centrifuging at 40000×g for 30 minutes at 4° C. The resulting membrane fraction was dissolved in a binding buffer (20 mM Tris-HCl, pH 7.4, 100 mM NaCl, 15 mM NaF, 2 mM deoxypyridoxine, 4 mg/mL fatty acid-free BSA), and then [^33P]-S1P (manufactured by ARC, final concentration 0.1 nM) and a DMSO solution (final concentration of the compound 10^−5 M, final concentration of DMSO 0.1%) of the test compound were added. Thereafter, the mixture was stirred and then treated for one hour at 30° C. Using a harvester, the membrane fraction was harvested onto unifilter-96 GF/C filter (manufactured by Perkin Elmer), washing was carried out four times with the binding buffer, and the filter was dried. Twenty five μL Microscint 0 (manufactured by Perkin Elmer) was added, and radioactivity was measured using Top Count NXT (manufactured by Packard) to calculate the amount (A) of [^33P]-S1P bound to the membrane fraction at the time when the compound was added.
The same procedure was carried out in the absence of the test compound, and the amount (B) of [^33P]-S1P bound was calculated. Further, the same procedure was carried out in the absence of the test compound by use of HEK-293 cells to which no Edg-1 (S1P1) gene was introduced, and the background amount (C) of [^33P]-S1P bound was calculated.
Inhibition rate (%)=[1−(A−C)/(B−C)]×100.
Moreover, the concentration required for a test compound to produce 50% inhibition of the binding caused in the absence of the test compound was also calculated (IC50). The above membrane system binding test was performed in the presence of a test compound at various concentrations to calculate the inhibition rate of Edg-1(S1P1) binding at each concentration according to the above equation, followed by calculating an IC50 value for each compound with data analysis software, Origin (Lightstone Corp., Japan).

T1 sequence (P21453 whole entry): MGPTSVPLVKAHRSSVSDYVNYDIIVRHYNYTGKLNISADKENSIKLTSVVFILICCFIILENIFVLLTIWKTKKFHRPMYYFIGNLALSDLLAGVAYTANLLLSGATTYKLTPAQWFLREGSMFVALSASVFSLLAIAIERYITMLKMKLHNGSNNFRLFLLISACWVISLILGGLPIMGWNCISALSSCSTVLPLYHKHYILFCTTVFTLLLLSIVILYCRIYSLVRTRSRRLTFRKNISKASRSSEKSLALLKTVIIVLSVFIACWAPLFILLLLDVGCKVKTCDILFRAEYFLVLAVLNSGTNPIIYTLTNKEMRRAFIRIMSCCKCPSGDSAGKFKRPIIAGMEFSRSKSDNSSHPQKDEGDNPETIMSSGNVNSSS

| SMILES | inhibition at 10 µM [%] | other results |
| --- | --- | --- |
| CCn1c(C(C)NS(=O)(=O)c2ccc(Cl)c3nonc23)cnc1Oc1ccc(C)cc1 (stereo not drawn) [Compound 12] | 68.1 | – |
| CCn1c(C(C)NS(=O)(=O)c2ccc(Br)cc2OC(F)(F)F)cnc1Oc1ccc(C)cc1 (stereo not drawn) [Compound 10] | 68.6 | – |
| CCn1c(C(C)NS(=O)(=O)c2c(Cl)cc(Cl)cc2Cl)cnc1Oc1ccc(C)cc1 (stereo not drawn) [Compound 78] | 66.7 | – |
| CCn1c(C(C)NS(=O)(=O)c2ccc(C(C)(C)C)cc2)cnc1Oc1ccc(C)cc1 (stereo not drawn) [Compound 6] | 54.7 | – |
| CCn1c(C(C)NS(=O)(=O)c2cccc3cnccc23)cnc1Oc1ccc(C)cc1 (stereo not drawn) [Compound 169] | 62 | – |
| CCn1c(C(C)NS(=O)(=O)c2cccc3ccccc23)cnc1Oc1ccc(C)cc1 (stereo not drawn) [Compound 27] | 68.5 | – |
| CCn1c(C(C)NS(=O)(=O)c2c(F)c(Br)cc(F)c2Br)cnc1Oc1ccc(C)cc1 (stereo not drawn) [Compound 102] | 78.2 | – |
| CCn1c(C(C)NS(=O)(=O)c2cccc(OC)c2)cnc1Oc1ccc(C)cc1 (stereo not drawn) [Compound 66] | 89.9 | – |
| CCn1c(C(C)NS(=O)(=O)c2ccc(OC(F)(F)F)cc2)cnc1Oc1ccc(C)cc1 (stereo not drawn) [Compound 39] | 64.8 | – |
| CCn1c(C(C)NS(=O)(=O)c2ccc(Cl)c(Cl)c2)cnc1Oc1cccc(-n2cccc2)c1 (stereo not drawn) [Compound 249, 3,4-Dichloro-N-{1-[3-ethyl-2-(3-pyrrol-1-yl-phenoxy)-3H-imidazol-4-yl]-ethyl}-benzenesulfonamide] | 100 | – |
| CCc1ccc(OC)c(S(=O)(=O)NC(C)c2cnc(Oc3ccc(C)cc3)n2CC)c1 (stereo not drawn) [Compound 166] | 80.7 | – |
| CCCc1ccc(S(=O)(=O)NC(C)c2cnc(Oc3ccc(C)cc3)n2CC)cc1 (stereo not drawn) [Compound 56] | 57.3 | – |
| CCn1c(C(C)NS(=O)(=O)c2ccc(I)cc2)cnc1Oc1ccc(C)cc1 (stereo not drawn) [Compound 31] | 93.3 | – |
| CCn1c(C(C)NS(=O)(=O)c2c(C)cc(Cl)cc2Cl)cnc1Oc1ccc(C)cc1 (stereo not drawn) [Compound 108] | 81.3 | – |
| CCn1c(C(C)NS(=O)(=O)c2cc(C)cc(C)c2)cnc1Oc1ccc(C)cc1 (stereo not drawn) [Compound 115] | 92.9 | – |
| CCn1c(C(C)NS(=O)(=O)c2ccc(C#N)cc2)cnc1Oc1ccc(C)cc1 (stereo not drawn) [Compound 76] | 89.3 | – |
| CCn1c(C(C)NS(=O)(=O)c2ccc(C)c(C)c2)cnc1Oc1ccc(C)cc1 (stereo not drawn) [Compound 133] | 104 | – |
| CCn1c(C(C)NS(=O)(=O)c2ccc(Br)cc2)cnc1Oc1ccc(C)cc1 (stereo not drawn) [Compound 5] | 106 | – |

| SMILES | inhibition at 10 µM [%] | other results |
| --- | --- | --- |
| CCn1c(C(C)NS(=O)(=O)c2cc3ccccc3s2)cnc1Oc1ccc(C)cc1 (stereo not drawn) [Compound 177] | 77.7 | – |
| CCn1c(C(C)NS(=O)(=O)c2cc(C)oc2C(F)(F)F)cnc1Oc1ccc(C)cc1 (stereo not drawn) [Compound 143] | 58.8 | – |
| CC[C@@H](NS(=O)(=O)c1ccc(Cl)c(Cl)c1)c1cnc(Oc2ccc(F)cc2)n1CC [Compound 253, (R)-(+)-3,4-Dichloro-N-{1-[3-ethyl-2-(4-fluorophenoxy)-3H-imidazol-4-yl]-propyl}-benzenesulfonamide] | 100 | IC50 (membrane system binding test, various concentrations): 27.5 nM |
| CCn1c(C(C)NS(=O)(=O)c2cccc(Br)c2)cnc1Oc1ccc(C)cc1 (stereo not drawn) [Compound 9] | 113 | – |
| CCc1ccc(S(=O)(=O)NC(C)c2cnc(Oc3ccc(C)cc3)n2CC)cc1 (stereo not drawn) [Compound 21] | 66.8 | – |
| CCn1c(C(C)NS(=O)(=O)c2ccc(C(=O)OC)n2C)cnc1Oc1ccc(C)cc1 (stereo not drawn) [Compound 51] | 93.7 | – |
| CCn1c(C(C)NS(=O)(=O)c2ccc(-c3ccno3)s2)cnc1Oc1ccc(C)cc1 (stereo not drawn) [Compound 111] | 59.6 | – |
| CCn1c(C(C)NS(=O)(=O)c2cc(Cl)c(Cl)cc2Cl)cnc1Oc1ccc(C)cc1 (stereo not drawn) [Compound 33] | 115 | – |
| CCn1c(C(C)NS(=O)(=O)c2ccc(OC)cc2)cnc1Oc1ccc(C)cc1 (stereo not drawn) [Compound 23] | 98.6 | – |
| CCn1c(C(C)NS(=O)(=O)c2c(C)c(C)cc(C)c2C)cnc1Oc1ccc(C)cc1 (stereo not drawn) [Compound 58] | 66.4 | – |
| CCn1c(C(C)NS(=O)(=O)c2ccccc2)cnc1Oc1ccc(C)cc1 (stereo not drawn) [Compound 4] | 72.8 | – |
| CCn1c(C(C)NS(=O)(=O)c2cccc(C#N)c2)cnc1Oc1ccc(C)cc1 (stereo not drawn) [Compound 13] | 64.4 | – |
| CCn1c(C(C)NS(=O)(=O)c2ccc(Br)c(C)c2)cnc1Oc1ccc(C)cc1 (stereo not drawn) [Compound 122] | 100 | – |
| CCn1c(C(C)NS(=O)(=O)c2cc(F)c(F)c(F)c2)cnc1Oc1ccc(C)cc1 (stereo not drawn) [Compound 121] | 101 | – |
| CCn1c(C(C)NS(=O)(=O)c2ccc(Br)c(C(F)(F)F)c2)cnc1Oc1ccc(C)cc1 (stereo not drawn) [Compound 172] | 75.9 | – |
| CCn1c(C(C)NS(=O)(=O)c2ccc(Cl)c(Cl)c2)cnc1Sc1ccc(C)cc1 (stereo not drawn) [Compound 241, 3,4-Dichloro-N-[1-(3-ethyl-2-p-tolylsulfanyl-3H-imidazol-4-yl)-ethyl]-benzenesulfonamide] | 82.6 | – |
| CCCCCCCCCCCCC/C=C/[C@@H](O)[C@@H](N)COP(=O)(O)O [[^33P]-S1P, Sphingosine-1-phosphate] | – | Kd (human Edg-1 (S1P1) gene transferred HEK-293 membrane fraction): 0.15 nM |

Now from value to compound, other results behind:

| inhibition at 10 µM [%] | SMILES | other results |
| --- | --- | --- |
| 57 | CCn1c(C(C)NS(=O)(=O)c2ccc(C(F)(F)F)cc2Cl)cnc1Oc1ccc(C)cc1 (stereo not drawn) [Compound 158] | – |
| 106 | CCn1c(C(C)NS(=O)(=O)c2ccc(F)c(Cl)c2)cnc1Oc1ccc(C)cc1 (stereo not drawn) [Compound 65] | – |
| 101 | CCn1c(C(C)NS(=O)(=O)c2cccc(Cl)c2Cl)cnc1Oc1ccc(C)cc1 (stereo not drawn) [Compound 59] | – |
| 75.2 | CCn1c(C(C)NS(=O)(=O)c2cc(F)c(F)cc2Cl)cnc1Oc1ccc(C)cc1 (stereo not drawn) [Compound 93] | – |
| 80 | CCn1c(C(C)NS(=O)(=O)c2cc(Cl)ccc2Cl)cnc1Oc1ccc(C)cc1 (stereo not drawn) [Compound 17] | – |
| 95.3 | CCn1c(C(C)NS(=O)(=O)c2cc(Cl)cc(Cl)c2)cnc1Oc1ccc(C)cc1 (stereo not drawn) [Compound 63] | – |
| 103 | CCn1c(C(C)NS(=O)(=O)c2ccc(Cl)c(Cl)c2Cl)cnc1Oc1ccc(C)cc1 (stereo not drawn) [Compound 57] | – |
| 76.5 | CCn1c(C(C)NS(=O)(=O)c2sc3ccc(Cl)cc3c2C)cnc1Oc1ccc(C)cc1 (stereo not drawn) [Compound 14] | – |
| 103 | CCn1c(C(C)NS(=O)(=O)c2ccc(Cl)cc2)cnc1Oc1ccc(C)cc1 (stereo not drawn) [Compound 11] | – |
| 78.6 | CCn1c(C(C)NS(=O)(=O)c2ccc(F)c(F)c2F)cnc1Oc1ccc(C)cc1 (stereo not drawn) [Compound 90] | – |
| 53 | CCn1c(C(C)NS(=O)(=O)c2c(F)cccc2F)cnc1Oc1ccc(C)cc1 (stereo not drawn) [Compound 103] | – |
| 81 | CCn1c(C(C)NS(=O)(=O)c2cc(C)ccc2F)cnc1Oc1ccc(C)cc1 (stereo not drawn) [Compound 134] | – |
| 74.2 | CCn1c(C(C)NS(=O)(=O)c2ccc(Br)cc2C)cnc1Oc1ccc(C)cc1 (stereo not drawn) [Compound 88] | – |
| 101 | CCn1c(C(C)NS(=O)(=O)c2ccc(Cl)c(Cl)c2)cnc1Oc1ccc(C)cc1 (stereo not drawn) [Compound 74, 3,4-Dichloro-N-[1-(3-ethyl-2(4-methylphenoxy)-3H-imidazol-4-yl)-ethyl]-benzenesulfonamide] | – |
| 74.4 | CCn1c(C(C)NS(=O)(=O)c2cc(F)cc(Cl)c2C)cnc1Oc1ccc(C)cc1 (stereo not drawn) [Compound 86] | – |
| 84.2 | CCn1c(C(C)NS(=O)(=O)c2cccc(F)c2)cnc1Oc1ccc(C)cc1 (stereo not drawn) [Compound 105] | – |
| 79.8 | CCn1c(C(C)NS(=O)(=O)c2ccccc2C)cnc1Oc1ccc(C)cc1 (stereo not drawn) [Compound 38] | – |
| 96.8 | CCn1c(C(C)NS(=O)(=O)c2ccc(F)c(C#N)c2)cnc1Oc1ccc(C)cc1 (stereo not drawn) [Compound 114] | – |
| 70.2 | CCn1c(C(C)NS(=O)(=O)c2ccc(F)c3ccccc23)cnc1Oc1ccc(C)cc1 (stereo not drawn) [Compound 162] | – |
| 63.3 | CCn1c(C(C)NS(=O)(=O)c2ccccc2Br)cnc1Oc1ccc(C)cc1 (stereo not drawn) [Compound 7] | – |
| 80.4 | CCn1c(C(C)NS(=O)(=O)c2cc(F)c(Cl)cc2F)cnc1Oc1ccc(C)cc1 (stereo not drawn) [Compound 96] | – |
| 81.2 | CCn1c(C(C)NS(=O)(=O)c2ccc(Cl)cc2F)cnc1Oc1ccc(C)cc1 (stereo not drawn) [Compound 120] | – |
| 81.3 | CCn1c(C(C)NS(=O)(=O)c2cc(F)c(F)cc2F)cnc1Oc1ccc(C)cc1 (stereo not drawn) [Compound 109] | – |
| 92.1 | CCn1c(C(C)NS(=O)(=O)c2ccc(F)cc2)cnc1Oc1ccc(C)cc1 (stereo not drawn) [Compound 22] | – |
| 65.6 | CCn1c(C(C)NS(=O)(=O)c2cc(Cl)ccc2F)cnc1Oc1ccc(C)cc1 (stereo not drawn) [Compound 128] | – |
| 72.4 | CCn1c(C(C)NS(=O)(=O)c2cccc(Cl)c2)cnc1Oc1ccc(C)cc1 (stereo not drawn) [Compound 84] | – |
| 86.5 | CCn1c(C(C)NS(=O)(=O)c2ccc(F)c(F)c2)cnc1Oc1ccc(C)cc1 (stereo not drawn) [Compound 94] | – |
